According to the supplement of paper PMC11061612:

What was measured:
Test in all cases: Bliss excess, mean over the matrix (fraction); higher = more synergy
[1] = test system: RKO (Colorectal Carcinoma)
In short: (§1)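 Cell lines in DMEM/F12 or RPMI with 10% FBS were plated in 1536-well plates, held 24 hours at 37°C, 5% CO2, then given two-drug dose matrices for 72 hours (DMSO typically 0.2%). Viability was read by CellTiter-Glo 2.0 luminescence and scaled as inhibition from 0 (vehicle wells) to 1 (blank wells). Combination Emax is the second-highest inhibition in the matrix; Bliss excess is observed combination effect minus expected EA + EB − EA·EB, EA and EB being single-agent effects.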

[2] = test system: KYSE-410 (Esophageal Squamous Cell Carcinoma)
In short: as §1

[3] = test system: SK-OV-3 (Ovarian Carcinoma)
In short: as §1

[4] = test system: NCI-H2461 (Mesothelioma)
In short: as §1

[5] = test system: Mewo (Melanoma)
In short: as §1

[6] = test system: SW1116 (Colorectal Carcinoma)
In short: as §1

[7] = test system: NCI-H28 (Mesothelioma)
In short: as §1

[8] = test system: SU-DHL-6 (B-Cell Non-Hodgkin's Lymphoma)
In short: as §1

[9] = test system: MHH-PREB-1 (B-Cell Non-Hodgkin's Lymphoma)
In short: as §1

[10] = test system: NCI-H2795 (Mesothelioma)
In short: as §1

[11] = test system: SW1271 (Small Cell Lung Carcinoma)
In short: as §1

[12] = test system: HCC-15 (Squamous Cell Lung Carcinoma)
In short: as §1

[13] = test system: SW626 (Colorectal Carcinoma)
In short: as §1

[14] = test system: CAL-51 (Breast Carcinoma)
In short: as §1

[15] = test system: OC-314 (Ovarian Carcinoma)
In short: as §1

[16] = test system: 8305C (Thyroid Gland Carcinoma)
In short: as §1

[17] = test system: LU-139 (Small Cell Lung Carcinoma)
In short: as §1

[18] = test system: CAL-54 (Kidney Carcinoma)
In short: as §1

[19] = test system: HDLM-2 (Hodgkin's Lymphoma)
In short: as §1

[20] = test system: K5 (Thyroid Gland Carcinoma)
In short: as §1

SMILES	Bliss excess [1]	Bliss excess [2]	Bliss excess [3]	Bliss excess [4]	Bliss excess [5]	Bliss excess [6]	Bliss excess [7]	Bliss excess [8]	Bliss excess [9]	Bliss excess [10]	Bliss excess [11]	Bliss excess [12]	Bliss excess [13]	Bliss excess [14]	Bliss excess [15]	Bliss excess [16]	Bliss excess [17]	Bliss excess [18]	Bliss excess [19]	Bliss excess [20]
COc1cccc(OCCCN)c1-c1cc(Nc2cnc(C#N)cn2)n[nH]1 [Prexasertib] + C[C@@H]1COCCN1C2=NC(=NC(=C2)C3(CC3)[S@](=N)(=O)C)C4=C5C=CNC5=NC=C4 [AZD6738] (first compound max 1 µM, 7x7, partner max 10 µM)	-0.0176	-0.0548	-0.0412	-0.0344	-0.0403	0.0637	-0.0062	-0.0158	-0.0643	0.0361	-0.0337	0.0058	0.007	-0.0078	0.0344	-0.0226	0.0339	-0.0883	-0.0669	0.0037
C=CCn1c(=O)c2cnc(Nc3ccc(N4CCN(C)CC4)cc3)nc2n1-c1cccc(C(C)(C)O)n1 [AZD1775] + CCc1c2c(nc3ccc(O)cc13)-c1cc3c(c(=O)n1C2)COC(=O)[C@]3(O)CC [SN-38] (first compound max 1 µM, partner max 0.3 µM)	-0.0377	–	-0.0557	-0.1	-0.0402	-0.0987	-0.0503	0.0224	–	-0.0951	-0.0391	–	–	–	0.0032	-0.0536	-0.0526	-0.0327	-0.0928	-0.0219
C=CCn1c(=O)c2cnc(Nc3ccc(N4CCN(C)CC4)cc3)nc2n1-c1cccc(C(C)(C)O)n1 [AZD1775] + C1CN(CCC1(C(=O)N[C@@H](CCO)C2=CC=C(C=C2)Cl)N)C3=NC=NC4=C3C=CN4 [Capivasertib] (first compound max 3 µM, partner max 3 µM)	0.0179	-0.0015	-0.0692	-0.0587	-0.0433	-0.0561	-0.0725	0.0012	-0.005	-0.0042	-0.0161	-0.0331	-0.0606	-0.0188	-0.0158	0.0069	0.0096	-0.0622	-0.0503	0.0493
COc1cccc2c1C(=O)c1c(O)c3c(c(O)c1C2=O)C[C@@](O)(C(=O)CO)C[C@@H]3O[C@H]1C[C@H](N)[C@H](O)[C@H](C)O1 [Doxorubicin] + Cc1cc2ncnn2cc1Nc1ncc2c(n1)n(C1CCOCC1)c(=O)n2C [AZD7648] (first compound max 1 µM, 7x7, partner max 10 µM)	0.0473	-0.0448	-0.0049	-0.0108	0.0082	-0.0046	-0.0177	0.0697	0.0891	0.0227	0.0452	0.0127	0.0033	0.121	0.105	-0.0023	0.0476	0.0594	0.0106	0.0319
Cc1c2c(nn1C)CSCc1cc(n(C)n1)CSc1cc(c3ccccc3c1)OCCCc1c(C(=O)O)n(C)c3c-2c(Cl)ccc13 [AZD5991] + CN(C)CCCOc1ccc(-c2ccc3ncc4c(c3c2)n(C2CCOCC2)c(=O)n4C)cn1 [AZD0156] (first compound max 1 µM, 7x7, partner max 1 µM)	0.0041	-0.028	0.0106	0.0373	-0.019	-0.0032	-0.0024	-0.0154	0.0081	0.0192	0.0034	0.0213	0.0094	0.0198	0.0093	-0.0178	-0.0236	-0.0036	0.0332	-0.0277
CC(=O)c1c(C)c2cnc(Nc3ccc(N4CCNCC4)cn3)nc2n(C2CCCC2)c1=O [Palbociclib] + Cn1cnc2c(F)c(Nc3ccc(Br)cc3Cl)c(C(=O)NOCCO)cc21 [Selumetinib] (first compound max 10 µM, 7x7, partner max 10 µM)	0.082	0.0141	-0.0419	-0.0034	-0.0844	-0.0189	-0.0508	0.167	-0.0401	-0.0173	-0.0417	-0.0069	-0.057	0.0035	0.0141	0.0123	0.0109	-0.0125	-0.0362	-0.0341
CCN(CCO)CCCOc1ccc2c(Nc3cc(CC(=O)Nc4cccc(F)c4)[nH]n3)ncnc2c1 [AZD2811] + C[C@@H]1COCCN1C2=NC(=NC(=C2)C3(CC3)[S@](=N)(=O)C)C4=C5C=CNC5=NC=C4 [AZD6738] (first compound max 1 µM, 7x7, partner max 10 µM)	-0.0152	-0.0514	-0.117	-0.0728	-0.0399	-0.0234	-0.0554	0.0131	-0.0608	-0.0517	-0.0829	-0.0238	-0.0724	0.0075	0.0052	-0.0872	-0.108	-0.0383	-0.0357	-0.086
NC1(C(=O)N[C@@H](CCO)c2ccc(Cl)cc2)CCN(c2ncnc3[nH]ccc23)CC1 [Capivasertib] + CCN(CCO)CCCOc1ccc2c(Nc3cc(CC(=O)Nc4cccc(F)c4)[nH]n3)ncnc2c1 [AZD2811] (first compound max 10 µM, 7x7, partner max 1 µM)	-0.0055	-0.0104	-0.0301	-0.0811	0.0228	-0.0435	-0.0484	0.0406	-0.0306	0.0267	-0.0113	-0.0366	-0.0338	0.0519	-0.015	0.0022	0.0616	-0.0357	0.0228	-0.0379
Cc1cc2ncnn2cc1Nc1ncc2c(n1)n(C1CCOCC1)c(=O)n2C [AZD7648] + CN(C)CCCOc1ccc(-c2ccc3ncc4c(c3c2)n(C2CCOCC2)c(=O)n4C)cn1 [AZD0156] (first compound max 10 µM, 7x7, partner max 1 µM)	0.0317	-0.0059	-0.0289	-0.0442	0.0033	-0.0064	-0.0195	-0.0502	0.118	-0.025	0.0567	0.0013	0.0225	-0.0198	0.0334	-0.061	-0.0306	-0.0384	-0.0381	-0.0226
CN(CCO)CC[C@H](CSc1ccccc1)Nc1ccc(S(=O)(=O)NC(=O)c2ccc(N3CCC([C@@H](O)c4ccccc4-c4ccc(Cl)cc4)CC3)cc2)cc1S(=O)(=O)C(F)(F)F [AZD4320] + CN(C)CCCOc1ccc(-c2ccc3ncc4c(c3c2)n(C2CCOCC2)c(=O)n4C)cn1 [AZD0156] (first compound max 1 µM, 7x7, partner max 1 µM)	-0.0253	-0.0482	-0.0364	-0.0479	-0.0466	-0.069	-0.0693	–	0.0075	-0.0596	-0.0413	-0.0137	-0.0545	-0.034	-0.0231	-0.0489	-0.0164	-0.0224	-0.0667	-0.0779
COc1cc2ncnc(Nc3ccc(F)c(Cl)c3)c2cc1OCCCN1CCOCC1 [Gefitinib] + CC(C)n1c(=O)n(C)c2cnc3cc(F)c(-c4ccc(OCCCN5CCCCC5)nc4)cc3c21 [AZD1390] (first compound max 10 µM, 7x7, partner max 0.3 µM)	-0.0362	-0.0779	-0.0442	-0.0733	-0.0712	-0.0835	–	0.0167	-0.0748	-0.0631	-0.0388	-0.0442	-0.0777	-0.0485	-0.0314	-0.147	-0.0251	-0.0718	-0.0768	-0.0479
CS(=O)(=O)CCNCc1ccc(-c2ccc3ncnc(Nc4ccc(OCc5cccc(F)c5)c(Cl)c4)c3c2)o1 [Lapatinib] + Cn1cnc2c(F)c(Nc3ccc(Br)cc3Cl)c(C(=O)NOCCO)cc21 [Selumetinib] (first compound max 10 µM, 7x7, partner max 10 µM)	0.0413	–	-0.0287	-0.0492	-0.0029	0.0744	-0.0026	0.0412	–	-0.0488	-0.0167	–	–	–	0.0644	-0.0297	-0.0161	0.0022	0.0023	-0.022
Cc1nc(-c2cn3c(n2)-c2ccc(-c4cnn(C(C)(C)C(N)=O)c4)cc2OCC3)n(C(C)C)n1 [Taselisib] + O=C(Nc1ccc2[nH]nc(-c3ccncc3)c2c1)[C@@H]1CCN(CC(=O)N2CCN(c3ccc(-c4ncccn4)cc3)CC2)C1 [SCH772984] (first compound max 10 µM, 7x7, partner max 5 µM)	0.146	–	0.0609	-0.012	0.017	0.0831	0.0417	0.0251	–	0.0704	-0.0096	–	–	–	0.0521	0.0199	-0.0066	-0.0024	0.0529	0.0419
CCc1c2c(nc3ccc(O)cc13)-c1cc3c(c(=O)n1C2)COC(=O)[C@]3(O)CC [SN-38] + O=C(c1cc(Cc2n[nH]c(=O)c3ccccc23)ccc1F)N1CCN(C(=O)C2CC2)CC1 [Olaparib] (first compound max 0.3 µM, 7x7, partner max 10 µM)	0.0223	0.0014	0.0571	0.0234	0.008	0.0152	0.0588	0.0391	–	0.08	0.129	–	0.0064	0.119	0.117	0.04	0.0842	-0.0068	-0.0438	0.0566
CS(=O)(=O)CCNCc1ccc(-c2ccc3ncnc(Nc4ccc(OCc5cccc(F)c5)c(Cl)c4)c3c2)o1 [Lapatinib] + NC1(c2ccc(-c3nc4ccn5c(=O)[nH]nc5c4cc3-c3ccccc3)cc2)CCC1 [MK-2206] (first compound max 10 µM, 7x7, partner max 10 µM)	-0.0002	–	0.0257	-0.0423	0.0072	-0.01	-0.0103	0.0378	–	0.0513	0.0083	–	–	–	0.043	0.118	0.0119	-0.0009	-0.0168	0.0293
